In PubChem BioAssay AID2060895 (Molecular Pharmacology Branch, DTP, NCI, 2025):

Tested on: PDC 899932-113-R3-J6 complex spheroid viability
Assay: Anticancer human tumor 899932-113-R3-J6-PDC patient-derived melanoma cell line growth inhibition [RAS]
Settings: for IC50: curve of first compound; for viability, T/C: stronger effect = lower value; active means viability on the fitted dose curve at most 10% of control; inactive means the rest
Summary of the method: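 Agents were tested in combination matrices in half-log decrements from a top concentration at or near clinical Cmax (10 microM if undetermined). Targets were multi-cell spheroids of tumour lines plus HUVEC and MSC stromal cells.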

[1] = second compound 0.000949 µM, first compound 0.0316 µM
[2] = second compound 0.000949 µM, first compound 0.1 µM
[3] = second compound 0.000949 µM, first compound 0.316 µM
[4] = second compound 0.000949 µM, first compound 1 µM
[5] = second compound 0.000949 µM, first compound 3.16 µM
[6] = second compound 0.000949 µM, first compound 10 µM
[7] = second compound 0.003 µM, first compound 0.0316 µM
[8] = second compound 0.003 µM, first compound 0.1 µM
[9] = second compound 0.003 µM, first compound 0.316 µM
[10] = second compound 0.003 µM, first compound 1 µM
[11] = second compound 0.003 µM, first compound 3.16 µM
[12] = second compound 0.003 µM, first compound 10 µM
[13] = second compound 0.00949 µM, first compound 0.0316 µM
[14] = second compound 0.00949 µM, first compound 0.1 µM
[15] = second compound 0.00949 µM, first compound 0.316 µM
[16] = second compound 0.00949 µM, first compound 1 µM
[17] = second compound 0.00949 µM, first compound 3.16 µM
[18] = second compound 0.00949 µM, first compound 10 µM
[19] = second compound 0.03 µM, first compound 0.0316 µM
[20] = second compound 0.03 µM, first compound 0.1 µM
[21] = second compound 0.03 µM, first compound 0.316 µM
[22] = second compound 0.03 µM, first compound 1 µM
[23] = second compound 0.03 µM, first compound 3.16 µM
[24] = second compound 0.03 µM, first compound 10 µM
[25] = second compound 0.0949 µM, first compound 0.0316 µM
[26] = second compound 0.0949 µM, first compound 0.1 µM
[27] = second compound 0.0949 µM, first compound 0.316 µM
[28] = second compound 0.0949 µM, first compound 1 µM
[29] = second compound 0.0949 µM, first compound 3.16 µM
[30] = second compound 0.0949 µM, first compound 10 µM
[31] = second compound 0.3 µM, first compound 0.0316 µM
[32] = second compound 0.3 µM, first compound 0.1 µM
[33] = second compound 0.3 µM, first compound 0.316 µM
[34] = second compound 0.3 µM, first compound 1 µM
[35] = second compound 0.3 µM, first compound 3.16 µM
[36] = second compound 0.3 µM, first compound 10 µM
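Wherever viability, T/C is given: spheroids exposed to agents for seven days before readout; 100% = DMSO vehicle control wells.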

CC1(O)CCCC1n1c(=O)c(C(F)F)cc2cnc(NC3CCN(S(C)(=O)=O)CC3)nc21 (stereo not drawn) + CCn1c(-c2cc(N3CCN(C)CC3)cnc2C(C)OC)c2c3cc(ccc31)-c1csc(n1)CC(NC(=O)C1CC1C)C(=O)N1CCCC(N1)C(=O)OCC(C)(C)C2
active: viability, T/C [13] 4.88% | viability, T/C [14] 6.46% | viability, T/C [15] 7.99% | viability, T/C [16] 9.02% | viability, T/C [17] 8.75% | viability, T/C [18] 4.7% | viability, T/C [19] 2.99% | viability, T/C [20] 2.96% | viability, T/C [21] 3.21% | viability, T/C [22] 3.04% | viability, T/C [23] 3.2% | viability, T/C [24] 1.24% | viability, T/C [25] 2.41% | viability, T/C [26] 2.7% | viability, T/C [27] 2.57% | viability, T/C [28] 3.02% | viability, T/C [29] 2.41% | viability, T/C [30] 0.82% | viability, T/C [31] 1.98% | viability, T/C [32] 2.13% | viability, T/C [33] 2.07% | viability, T/C [34] 1.97% | viability, T/C [35] 2.39% | viability, T/C [36] 0.63%
239 nM: IC50 (second compound 0.000949 µM)
< 31.6 nM: IC50 (second compound 0.003 µM) | IC50 (second compound 0.00949 µM) | IC50 (second compound 0.03 µM) | IC50 (second compound 0.0949 µM) | IC50 (second compound 0.3 µM)
inactive: viability, T/C [1] 77.9% | viability, T/C [2] 54.2% | viability, T/C [3] 49.5% | viability, T/C [4] 39.3% | viability, T/C [5] 37.1% | viability, T/C [6] 27.2% | viability, T/C [7] 41.5% | viability, T/C [8] 33% | viability, T/C [9] 27.5% | viability, T/C [10] 25.6% | viability, T/C [11] 26.6% | viability, T/C [12] 14.1%

CCC(CC)c1cc(NC2CCC(N)C2)n2nccc2n1 (stereo not drawn) + CCn1c(-c2cc(N3CCN(C)CC3)cnc2C(C)OC)c2c3cc(ccc31)-c1csc(n1)CC(NC(=O)C1CC1C)C(=O)N1CCCC(N1)C(=O)OCC(C)(C)C2
1070 nM: IC50 (second compound 0.000949 µM)
active: viability, T/C [5] 0.22% | viability, T/C [6] 0.15% | viability, T/C [11] 0.58% | viability, T/C [12] 0.66% | viability, T/C [13] 3.22% | viability, T/C [14] 4.26% | viability, T/C [15] 3.48% | viability, T/C [16] 4.75% | viability, T/C [17] 0.1% | viability, T/C [18] 0.59% | viability, T/C [19] 3.14% | viability, T/C [20] 3.12% | viability, T/C [21] 3.99% | viability, T/C [22] 2.67% | viability, T/C [23] 0.09% | viability, T/C [24] 0.83% | viability, T/C [25] 2.55% | viability, T/C [26] 2.58% | viability, T/C [27] 2.46% | viability, T/C [28] 1.27% | viability, T/C [29] 0.74% | viability, T/C [30] 0.84% | viability, T/C [31] 2.43% | viability, T/C [32] 3.04% | viability, T/C [33] 2.55% | viability, T/C [34] 1.37% | viability, T/C [35] 0.48% | viability, T/C [36] 0.89%
< 31.6 nM: IC50 (second compound 0.003 µM) | IC50 (second compound 0.00949 µM) | IC50 (second compound 0.03 µM) | IC50 (second compound 0.0949 µM) | IC50 (second compound 0.3 µM)
inactive: viability, T/C [1] 69.1% | viability, T/C [2] 73.5% | viability, T/C [3] 64.5% | viability, T/C [4] 53.2% | viability, T/C [7] 28.8% | viability, T/C [8] 28.2% | viability, T/C [9] 26.5% | viability, T/C [10] 16.3%

Cc1nc(N2CCC3(CC2)COC(C)C3N)c(CO)nc1Sc1ccnc(N)c1Cl (stereo not drawn) + CCn1c(-c2cc(N3CCN(C)CC3)cnc2C(C)OC)c2c3cc(ccc31)-c1csc(n1)CC(NC(=O)C1CC1C)C(=O)N1CCCC(N1)C(=O)OCC(C)(C)C2
inactive: viability, T/C [1] 70.1% | viability, T/C [2] 71.2% | viability, T/C [3] 76.8% | viability, T/C [4] 78.6% | viability, T/C [5] 80% | viability, T/C [6] 83% | viability, T/C [7] 29.8% | viability, T/C [8] 29.9% | viability, T/C [9] 30.1% | viability, T/C [10] 31.8% | viability, T/C [11] 38.8% | viability, T/C [12] 35.3%
active: viability, T/C [13] 3.52% | viability, T/C [14] 3.03% | viability, T/C [15] 2.45% | viability, T/C [16] 2.29% | viability, T/C [17] 2.72% | viability, T/C [18] 2.76% | viability, T/C [19] 2.9% | viability, T/C [20] 2.41% | viability, T/C [21] 2.2% | viability, T/C [22] 2.42% | viability, T/C [23] 1.4% | viability, T/C [24] 1.8% | viability, T/C [25] 2.84% | viability, T/C [26] 2.97% | viability, T/C [27] 1.92% | viability, T/C [28] 2.03% | viability, T/C [29] 1.67% | viability, T/C [30] 0.79% | viability, T/C [31] 2.22% | viability, T/C [32] 2.77% | viability, T/C [33] 1.95% | viability, T/C [34] 2.27% | viability, T/C [35] 1.64% | viability, T/C [36] 1.71%
> 10000 nM: IC50 (second compound 0.000949 µM)
< 31.6 nM: IC50 (second compound 0.003 µM) | IC50 (second compound 0.00949 µM) | IC50 (second compound 0.03 µM) | IC50 (second compound 0.0949 µM) | IC50 (second compound 0.3 µM)

NC1c2ccccc2OC12CCN(c1cnc3c(N4CCCc5ncccc54)n[nH]c3n1)CC2 (stereo not drawn) + CCn1c(-c2cc(N3CCN(C)CC3)cnc2C(C)OC)c2c3cc(ccc31)-c1csc(n1)CC(NC(=O)C1CC1C)C(=O)N1CCCC(N1)C(=O)OCC(C)(C)C2
< 31.6 nM: IC50 (second compound 0.003 µM) | IC50 (second compound 0.00949 µM) | IC50 (second compound 0.03 µM) | IC50 (second compound 0.0949 µM) | IC50 (second compound 0.3 µM)
> 10000 nM: IC50 (second compound 0.000949 µM)
active: viability, T/C [13] 2.82% | viability, T/C [14] 2.7% | viability, T/C [15] 2% | viability, T/C [16] 2.89% | viability, T/C [17] 3.55% | viability, T/C [18] 4.09% | viability, T/C [19] 2.17% | viability, T/C [20] 1.67% | viability, T/C [21] 1.01% | viability, T/C [22] 0.93% | viability, T/C [23] 0.99% | viability, T/C [24] 2.33% | viability, T/C [25] 1.84% | viability, T/C [26] 1.61% | viability, T/C [27] 0.9% | viability, T/C [28] 0.51% | viability, T/C [29] 0.3% | viability, T/C [30] 1.08% | viability, T/C [31] 1.87% | viability, T/C [32] 2.01% | viability, T/C [33] 1.11% | viability, T/C [34] 0.31% | viability, T/C [35] 0.4% | viability, T/C [36] 0.35%
inactive: viability, T/C [1] 72.7% | viability, T/C [2] 64.5% | viability, T/C [3] 79.9% | viability, T/C [4] 73.4% | viability, T/C [5] 81% | viability, T/C [6] 70.2% | viability, T/C [7] 31.8% | viability, T/C [8] 27.1% | viability, T/C [9] 34.3% | viability, T/C [10] 38% | viability, T/C [11] 38.2% | viability, T/C [12] 12.4%
